Measured values as given in PubChem BioAssay AID2060882 (Molecular Pharmacology Branch, DTP, NCI, 2025).

Tested on: 898857-211-R-J1-PDC complex spheroids, growth % test/control
Experiment: Anticancer human tumor 898857-211-R-J1-PDC patient-derived melanoma cell line growth inhibition [RAS]
Settings: for IC50: curve of first compound; for viability, T/C: stronger effect = lower value
How it was run: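 Agents were tested in combination matrices in half-log decrements from a top concentration at or near clinical Cmax (10 microM if undetermined). Targets were multi-cell spheroids of tumour lines plus HUVEC and MSC stromal cells.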

[1] = second compound 0.000949 µM, first compound 0.00316 µM
[2] = second compound 0.000949 µM, first compound 0.01 µM
[3] = second compound 0.000949 µM, first compound 0.0316 µM
[4] = second compound 0.000949 µM, first compound 0.1 µM
[5] = second compound 0.000949 µM, first compound 0.316 µM
[6] = second compound 0.000949 µM, first compound 1 µM
[7] = second compound 0.003 µM, first compound 0.00316 µM
[8] = second compound 0.003 µM, first compound 0.01 µM
[9] = second compound 0.003 µM, first compound 0.0316 µM
[10] = second compound 0.003 µM, first compound 0.1 µM
[11] = second compound 0.003 µM, first compound 0.316 µM
[12] = second compound 0.003 µM, first compound 1 µM
[13] = second compound 0.00949 µM, first compound 0.00316 µM
[14] = second compound 0.00949 µM, first compound 0.01 µM
[15] = second compound 0.00949 µM, first compound 0.0316 µM
[16] = second compound 0.00949 µM, first compound 0.1 µM
[17] = second compound 0.00949 µM, first compound 0.316 µM
[18] = second compound 0.00949 µM, first compound 1 µM
[19] = second compound 0.03 µM, first compound 0.00316 µM
[20] = second compound 0.03 µM, first compound 0.01 µM
[21] = second compound 0.03 µM, first compound 0.0316 µM
[22] = second compound 0.03 µM, first compound 0.1 µM
[23] = second compound 0.03 µM, first compound 0.316 µM
[24] = second compound 0.03 µM, first compound 1 µM
[25] = second compound 0.0949 µM, first compound 0.00316 µM
[26] = second compound 0.0949 µM, first compound 0.01 µM
[27] = second compound 0.0949 µM, first compound 0.0316 µM
[28] = second compound 0.0949 µM, first compound 0.1 µM
[29] = second compound 0.0949 µM, first compound 0.316 µM
[30] = second compound 0.0949 µM, first compound 1 µM
[31] = second compound 0.3 µM, first compound 0.00316 µM
[32] = second compound 0.3 µM, first compound 0.01 µM
[33] = second compound 0.3 µM, first compound 0.0316 µM
[34] = second compound 0.3 µM, first compound 0.1 µM
[35] = second compound 0.3 µM, first compound 0.316 µM
[36] = second compound 0.3 µM, first compound 1 µM
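Also: spheroids exposed to compound for seven days before readout.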
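For viability, T/C in this document: 100% = DMSO vehicle control wells.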

C=CC(=O)N1CCN(c2nc(OCC3CCCN3C)nc3c(F)c(-c4nc(N)cc(C)c4C(F)(F)F)c(Cl)cc23)C(C)C1 (stereo not drawn) + CCn1c(-c2cc(N3CCN(C)CC3)cnc2C(C)OC)c2c3cc(ccc31)-c1csc(n1)CC(NC(=O)C1CC1C)C(=O)N1CCCC(N1)C(=O)OCC(C)(C)C2
IC50 (second compound 0.000949 µM): > 1000 nM
IC50 (second compound 0.003 µM): > 1000 nM
IC50 (second compound 0.00949 µM): > 1000 nM
IC50 (second compound 0.03 µM): > 1000 nM
IC50 (second compound 0.0949 µM): > 1000 nM
IC50 (second compound 0.3 µM): > 1000 nM
viability, T/C [1]: 124%
viability, T/C [2]: 106%
viability, T/C [3]: 105%
viability, T/C [4]: 111%
viability, T/C [5]: 127%
viability, T/C [6]: 126%
viability, T/C [7]: 99.6%
viability, T/C [8]: 104%
viability, T/C [9]: 116%
viability, T/C [10]: 101%
viability, T/C [11]: 114%
viability, T/C [12]: 108%
viability, T/C [13]: 101%
viability, T/C [14]: 112%
viability, T/C [15]: 98.9%
viability, T/C [16]: 101%
viability, T/C [17]: 118%
viability, T/C [18]: 104%
viability, T/C [19]: 106%
viability, T/C [20]: 112%
viability, T/C [21]: 103%
viability, T/C [22]: 121%
viability, T/C [23]: 110%
viability, T/C [24]: 110%
viability, T/C [25]: 111%
viability, T/C [26]: 117%
viability, T/C [27]: 117%
viability, T/C [28]: 116%
viability, T/C [29]: 120%
viability, T/C [30]: 110%
viability, T/C [31]: 123%
viability, T/C [32]: 111%
viability, T/C [33]: 100%
viability, T/C [34]: 116%
viability, T/C [35]: 111%
viability, T/C [36]: 99.7%

CC1(C)CCC(Nc2ncc(C(F)(F)F)c(-c3c[nH]c4c(P(C)(C)=O)c(C#N)ccc34)n2)CN1 (stereo not drawn) + CCn1c(-c2cc(N3CCN(C)CC3)cnc2C(C)OC)c2c3cc(ccc31)-c1csc(n1)CC(NC(=O)C1CC1C)C(=O)N1CCCC(N1)C(=O)OCC(C)(C)C2
IC50 (second compound 0.000949 µM): 2.87 nM
IC50 (second compound 0.003 µM): 2.98 nM
IC50 (second compound 0.00949 µM): 3.56 nM
IC50 (second compound 0.03 µM): 2.5 nM
IC50 (second compound 0.0949 µM): 3.54 nM
IC50 (second compound 0.3 µM): 2.87 nM
viability, T/C (second compound 0.000949 µM, first compound 0.000949 µM): 104%
viability, T/C (second compound 0.000949 µM, first compound 0.003 µM): 47.7%
viability, T/C (second compound 0.000949 µM, first compound 0.00949 µM): 24.2%
viability, T/C (second compound 0.000949 µM, first compound 0.03 µM): 16.2%
viability, T/C (second compound 0.000949 µM, first compound 0.0949 µM): 17.3%
viability, T/C (second compound 0.000949 µM, first compound 0.3 µM): 15.1%
viability, T/C (second compound 0.003 µM, first compound 0.000949 µM): 79.3%
viability, T/C (second compound 0.003 µM, first compound 0.003 µM): 49.8%
viability, T/C (second compound 0.003 µM, first compound 0.00949 µM): 25.2%
viability, T/C (second compound 0.003 µM, first compound 0.03 µM): 18.4%
viability, T/C (second compound 0.003 µM, first compound 0.0949 µM): 16%
viability, T/C (second compound 0.003 µM, first compound 0.3 µM): 17.5%
viability, T/C (second compound 0.00949 µM, first compound 0.000949 µM): 83.1%
viability, T/C (second compound 0.00949 µM, first compound 0.003 µM): 54.7%
viability, T/C (second compound 0.00949 µM, first compound 0.00949 µM): 23.2%
viability, T/C (second compound 0.00949 µM, first compound 0.03 µM): 15.7%
viability, T/C (second compound 0.00949 µM, first compound 0.0949 µM): 17.8%
viability, T/C (second compound 0.00949 µM, first compound 0.3 µM): 17.8%
viability, T/C (second compound 0.03 µM, first compound 0.000949 µM): 83.3%
viability, T/C (second compound 0.03 µM, first compound 0.003 µM): 43.7%
viability, T/C (second compound 0.03 µM, first compound 0.00949 µM): 23.4%
viability, T/C (second compound 0.03 µM, first compound 0.03 µM): 19.8%
viability, T/C (second compound 0.03 µM, first compound 0.0949 µM): 17.5%
viability, T/C (second compound 0.03 µM, first compound 0.3 µM): 18.3%
viability, T/C (second compound 0.0949 µM, first compound 0.000949 µM): 81.3%
viability, T/C (second compound 0.0949 µM, first compound 0.003 µM): 54%
viability, T/C (second compound 0.0949 µM, first compound 0.00949 µM): 26.2%
viability, T/C (second compound 0.0949 µM, first compound 0.03 µM): 19.4%
viability, T/C (second compound 0.0949 µM, first compound 0.0949 µM): 18.1%
viability, T/C (second compound 0.0949 µM, first compound 0.3 µM): 16.6%
viability, T/C (second compound 0.3 µM, first compound 0.000949 µM): 78.5%
viability, T/C (second compound 0.3 µM, first compound 0.003 µM): 48.9%
viability, T/C (second compound 0.3 µM, first compound 0.00949 µM): 23.7%
viability, T/C (second compound 0.3 µM, first compound 0.03 µM): 18.4%
viability, T/C (second compound 0.3 µM, first compound 0.0949 µM): 16%
viability, T/C (second compound 0.3 µM, first compound 0.3 µM): 17.2%

C=CC(=O)Nc1cc(Nc2nccc(-c3cn(C)c4ccccc34)n2)c(OC)cc1N(C)CCN(C)C + CCn1c(-c2cccnc2C(C)OC)c2c3cc(ccc31)N1CCOC(CC(NC(=O)C(C(C)C)N(C)C(=O)C3(F)CCN(C(=O)C#CC(C)(C)N(C)C)CC3)C(=O)N3CCCC(N3)C(=O)OCC(C)(C)C2)C1
IC50 (second compound 0.000949 µM): > 1000 nM
IC50 (second compound 0.003 µM): 942 nM
IC50 (second compound 0.00949 µM): > 1000 nM
IC50 (second compound 0.03 µM): > 1000 nM
IC50 (second compound 0.0949 µM): > 1000 nM
IC50 (second compound 0.3 µM): 848 nM
viability, T/C [1]: 104%
viability, T/C [2]: 103%
viability, T/C [3]: 107%
viability, T/C [4]: 84.9%
viability, T/C [5]: 95.9%
viability, T/C [6]: 56.3%
viability, T/C [7]: 99.3%
viability, T/C [8]: 99.9%
viability, T/C [9]: 108%
viability, T/C [10]: 95.4%
viability, T/C [11]: 94.1%
viability, T/C [12]: 47.1%
viability, T/C [13]: 95.8%
viability, T/C [14]: 97.8%
viability, T/C [15]: 102%
viability, T/C [16]: 94.8%
viability, T/C [17]: 91.4%
viability, T/C [18]: 59.9%
viability, T/C [19]: 107%
viability, T/C [20]: 105%
viability, T/C [21]: 106%
viability, T/C [22]: 110%
viability, T/C [23]: 90.2%
viability, T/C [24]: 58.3%
viability, T/C [25]: 105%
viability, T/C [26]: 98.2%
viability, T/C [27]: 92.3%
viability, T/C [28]: 96.6%
viability, T/C [29]: 92.2%
viability, T/C [30]: 57%
viability, T/C [31]: 84.8%
viability, T/C [32]: 67.8%
viability, T/C [33]: 77.7%
viability, T/C [34]: 76.1%
viability, T/C [35]: 71.4%
viability, T/C [36]: 46.4%

O=C(c1ccc(F)c(F)c1Nc1ccc(I)cc1F)N1CC(O)([C@@H]2CCCCN2)C1 + CCn1c(-c2cccnc2C(C)OC)c2c3cc(ccc31)N1CCOC(CC(NC(=O)C(C(C)C)N(C)C(=O)C3(F)CCN(C(=O)C#CC(C)(C)N(C)C)CC3)C(=O)N3CCCC(N3)C(=O)OCC(C)(C)C2)C1
IC50 (second compound 0.000949 µM): 3.75 nM
IC50 (second compound 0.003 µM): 3.67 nM
IC50 (second compound 0.00949 µM): 4.67 nM
IC50 (second compound 0.03 µM): 3.3 nM
IC50 (second compound 0.0949 µM): < 3.16 nM
IC50 (second compound 0.3 µM): < 3.16 nM
viability, T/C [1]: 53.5%
viability, T/C [2]: 36.4%
viability, T/C [3]: 29.6%
viability, T/C [4]: 23.9%
viability, T/C [5]: 16.6%
viability, T/C [6]: 12%
viability, T/C [7]: 52.9%
viability, T/C [8]: 35.4%
viability, T/C [9]: 26.5%
viability, T/C [10]: 22.4%
viability, T/C [11]: 15.9%
viability, T/C [12]: 11.8%
viability, T/C [13]: 55.8%
viability, T/C [14]: 39.3%
viability, T/C [15]: 27.3%
viability, T/C [16]: 21.6%
viability, T/C [17]: 15.7%
viability, T/C [18]: 12.7%
viability, T/C [19]: 50.5%
viability, T/C [20]: 35.5%
viability, T/C [21]: 21.8%
viability, T/C [22]: 20.4%
viability, T/C [23]: 15.6%
viability, T/C [24]: 12.4%
viability, T/C [25]: 44.8%
viability, T/C [26]: 35.4%
viability, T/C [27]: 28.3%
viability, T/C [28]: 18.2%
viability, T/C [29]: 15.6%
viability, T/C [30]: 13.4%
viability, T/C [31]: 33.8%
viability, T/C [32]: 29.3%
viability, T/C [33]: 20.9%
viability, T/C [34]: 16.6%
viability, T/C [35]: 13.6%
viability, T/C [36]: 10.7%
